Laboratory results taken from ChEMBL document CHEMBL4507297, “Data for DCP probe PF-04457845” (2021).

Columns and labels:
[1] = tested on: Tyrosine-protein kinase ABL1 (Homo sapiens), P00519 [F317L]; conditions: Compound concentration 1000.0 nM
[2] = tested on: Tyrosine-protein kinase ABL1 (Homo sapiens), P00519 [H396P]; conditions: Compound concentration 1000.0 nM
[3] = molecular target: Atypical kinase COQ8B, mitochondrial (Homo sapiens) (UniProt Q96D53); conditions: Compound concentration 1000.0 nM
[4] = molecular target: 5'-AMP-activated protein kinase catalytic subunit alpha-1 (Homo sapiens) (UniProt Q13131); conditions: Compound concentration 1000.0 nM
[5] = molecular target: Bone morphogenetic protein receptor type-1B (Homo sapiens) (UniProt O00238); conditions: Compound concentration 1000.0 nM
[6] = molecular target: Cyclin-dependent kinase 4 (Homo sapiens) (UniProt P11802); conditions: Compound concentration 1000.0 nM
[7] = molecular target: Serine/threonine-protein kinase Chk2 (Homo sapiens) (UniProt O96017); conditions: Compound concentration 1000.0 nM
[8] = molecular target: Dual specificity protein kinase CLK4 (Homo sapiens) (UniProt Q9HAZ1); conditions: Compound concentration 1000.0 nM
[9] = molecular target: Casein kinase I isoform alpha-like (Homo sapiens) (UniProt Q8N752); conditions: Compound concentration 1000.0 nM
[10] = molecular target: Casein kinase I isoform delta (Homo sapiens) (UniProt P48730); conditions: Compound concentration 1000.0 nM
[11] = molecular target: Casein kinase II subunit alpha (Homo sapiens) (UniProt P68400); conditions: Compound concentration 1000.0 nM
[12] = molecular target: Casein kinase II subunit alpha' (Homo sapiens) (UniProt P19784); conditions: Compound concentration 1000.0 nM
[13] = molecular target: Death-associated protein kinase 3 (Homo sapiens) (UniProt O43293); conditions: Compound concentration 1000.0 nM
[14] = molecular target: Receptor tyrosine-protein kinase erbB-2 (Homo sapiens) (UniProt P04626); conditions: Compound concentration 1000.0 nM
[15] = molecular target: Inhibitor of nuclear factor kappa-B kinase subunit epsilon (Homo sapiens) (UniProt Q14164); conditions: Compound concentration 1000.0 nM
[16] = molecular target: Insulin receptor-related protein (Homo sapiens) (UniProt P14616); conditions: Compound concentration 1000.0 nM
[17] = molecular target: Tyrosine-protein kinase JAK1 (Homo sapiens) (UniProt P23458); conditions: Compound concentration 1000.0 nM
[18] = molecular target: Tyrosine-protein kinase JAK2 (Homo sapiens) (UniProt O60674); conditions: Compound concentration 1000.0 nM
[19] = molecular target: Tyrosine-protein kinase JAK3 (Homo sapiens) (UniProt P52333); conditions: Compound concentration 1000.0 nM
[20] = molecular target: Tyrosine-protein kinase Lck (Homo sapiens) (UniProt P06239); conditions: Compound concentration 1000.0 nM
[21] = molecular target: Mitogen-activated protein kinase kinase kinase 13 (Homo sapiens) (UniProt O43283); conditions: Compound concentration 1000.0 nM
[22] = molecular target: Mitogen-activated protein kinase kinase kinase 15 (Homo sapiens) (UniProt Q6ZN16); conditions: Compound concentration 1000.0 nM
[23] = molecular target: Myosin light chain kinase (Homo sapiens) (UniProt Q32MK0); conditions: Compound concentration 1000.0 nM
[24] = molecular target: Serine/threonine-protein kinase 38 (Homo sapiens) (UniProt Q15208); conditions: Compound concentration 1000.0 nM
[25] = molecular target: Serine/threonine-protein kinase PAK 1 (Homo sapiens) (UniProt Q13153); conditions: Compound concentration 1000.0 nM
[26] = molecular target: Serine/threonine-protein kinase PAK 2 (Homo sapiens) (UniProt Q13177); conditions: Compound concentration 1000.0 nM
[27] = molecular target: 3-phosphoinositide-dependent protein kinase 1 (Homo sapiens) (UniProt O15530); conditions: Compound concentration 1000.0 nM
[28] = tested on: Phosphatidylinositol 4,5-bisphosphate 3-kinase catalytic subunit alpha isoform (Homo sapiens), P42336 [H1047L]; conditions: Compound concentration 1000.0 nM
[29] = molecular target: cAMP-dependent protein kinase catalytic subunit PRKX (Homo sapiens) (UniProt P51817); conditions: Compound concentration 1000.0 nM
[30] = molecular target: Ribosomal protein S6 kinase alpha-6 (Homo sapiens) (UniProt Q9UK32); conditions: Compound concentration 1000.0 nM
[31] = molecular target: Serine/threonine-protein kinase Sgk1 (Homo sapiens) (UniProt O00141); conditions: Compound concentration 1000.0 nM
[32] = molecular target: Serine/threonine-protein kinase Sgk2 (Homo sapiens) (UniProt Q9HBY8); conditions: Compound concentration 1000.0 nM
[33] = molecular target: SRSF protein kinase 2 (Homo sapiens) (UniProt P78362); conditions: Compound concentration 1000.0 nM
[34] = molecular target: Serine/threonine-protein kinase TNNI3K (Homo sapiens) (UniProt Q59H18); conditions: Compound concentration 1000.0 nM
[35] = molecular target: Testis-specific serine/threonine-protein kinase 1 (Homo sapiens) (UniProt Q9BXA7); conditions: Compound concentration 1000.0 nM
[36] = molecular target: Non-receptor tyrosine-protein kinase TYK2 (Homo sapiens) (UniProt P29597); conditions: Compound concentration 1000.0 nM
[37] = molecular target: T1, 5-hydroxytryptamine receptor 3A (Homo sapiens) (UniProt P46098); conditions: Compound concentration 10.0 uM
T1 sequence (whole entry): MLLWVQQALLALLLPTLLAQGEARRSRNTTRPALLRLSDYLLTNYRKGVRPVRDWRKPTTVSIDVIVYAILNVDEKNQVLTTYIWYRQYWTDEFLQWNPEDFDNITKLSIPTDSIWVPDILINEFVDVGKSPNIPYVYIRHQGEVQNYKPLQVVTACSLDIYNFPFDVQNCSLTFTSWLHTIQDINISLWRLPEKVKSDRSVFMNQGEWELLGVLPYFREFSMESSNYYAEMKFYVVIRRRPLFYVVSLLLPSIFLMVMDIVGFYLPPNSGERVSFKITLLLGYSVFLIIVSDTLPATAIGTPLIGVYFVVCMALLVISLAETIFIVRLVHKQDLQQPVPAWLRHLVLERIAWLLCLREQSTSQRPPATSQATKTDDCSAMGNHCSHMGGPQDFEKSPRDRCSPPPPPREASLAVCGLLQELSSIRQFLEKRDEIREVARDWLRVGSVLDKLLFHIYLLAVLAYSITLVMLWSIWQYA

[38] = molecular target: 5-hydroxytryptamine receptor 5A (Homo sapiens) (UniProt P47898); conditions: Compound concentration 10.0 uM
[39] = molecular target: D(1A) dopamine receptor (Homo sapiens) (UniProt P21728); conditions: Compound concentration 10.0 uM

Phosphatidylinositol 4,5-bisphosphate 3-kinase catalytic subunit alpha isoform (Homo sapiens), P42336 [H1047L], sequence (P42336 whole entry H1047L, canonical isoform): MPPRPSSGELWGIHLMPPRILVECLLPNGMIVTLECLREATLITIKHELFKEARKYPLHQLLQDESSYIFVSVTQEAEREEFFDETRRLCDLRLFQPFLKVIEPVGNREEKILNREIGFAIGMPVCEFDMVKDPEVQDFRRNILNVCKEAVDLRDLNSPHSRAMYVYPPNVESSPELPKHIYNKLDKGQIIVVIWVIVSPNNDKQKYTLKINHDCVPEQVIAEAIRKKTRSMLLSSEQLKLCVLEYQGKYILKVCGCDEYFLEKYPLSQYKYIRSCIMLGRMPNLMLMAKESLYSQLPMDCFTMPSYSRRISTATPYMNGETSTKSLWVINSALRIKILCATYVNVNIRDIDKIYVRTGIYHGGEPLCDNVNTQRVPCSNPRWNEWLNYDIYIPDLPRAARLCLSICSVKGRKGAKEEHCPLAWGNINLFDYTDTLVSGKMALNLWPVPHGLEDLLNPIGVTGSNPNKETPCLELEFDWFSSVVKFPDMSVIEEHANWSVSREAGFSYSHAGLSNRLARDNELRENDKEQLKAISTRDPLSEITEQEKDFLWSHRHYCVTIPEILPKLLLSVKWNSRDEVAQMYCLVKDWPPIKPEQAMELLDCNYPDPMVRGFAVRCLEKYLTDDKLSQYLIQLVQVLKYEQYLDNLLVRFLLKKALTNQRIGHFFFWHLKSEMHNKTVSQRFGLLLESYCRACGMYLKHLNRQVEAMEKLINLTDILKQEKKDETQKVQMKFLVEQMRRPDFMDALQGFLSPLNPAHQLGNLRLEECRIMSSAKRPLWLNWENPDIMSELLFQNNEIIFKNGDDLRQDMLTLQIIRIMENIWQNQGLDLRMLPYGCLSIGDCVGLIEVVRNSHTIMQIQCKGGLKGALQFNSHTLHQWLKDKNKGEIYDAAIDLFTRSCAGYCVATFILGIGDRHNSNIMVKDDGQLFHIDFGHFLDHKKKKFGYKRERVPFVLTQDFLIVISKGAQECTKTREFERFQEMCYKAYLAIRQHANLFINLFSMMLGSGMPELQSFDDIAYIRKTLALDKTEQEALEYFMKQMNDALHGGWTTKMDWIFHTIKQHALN
Casein kinase II subunit alpha (Homo sapiens), sequence (P68400 whole entry, looked up): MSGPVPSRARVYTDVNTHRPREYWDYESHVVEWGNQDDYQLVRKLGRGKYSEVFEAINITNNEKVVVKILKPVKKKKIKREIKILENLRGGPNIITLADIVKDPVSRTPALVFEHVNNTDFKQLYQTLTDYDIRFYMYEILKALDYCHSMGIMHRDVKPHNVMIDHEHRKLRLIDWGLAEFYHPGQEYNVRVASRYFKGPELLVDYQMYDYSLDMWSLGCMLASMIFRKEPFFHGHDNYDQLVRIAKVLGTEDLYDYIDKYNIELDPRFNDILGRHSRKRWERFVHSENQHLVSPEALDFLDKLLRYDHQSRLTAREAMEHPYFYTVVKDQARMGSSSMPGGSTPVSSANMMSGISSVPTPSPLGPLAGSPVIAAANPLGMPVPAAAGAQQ
Death-associated protein kinase 3 (Homo sapiens), sequence (O43293 whole entry, looked up): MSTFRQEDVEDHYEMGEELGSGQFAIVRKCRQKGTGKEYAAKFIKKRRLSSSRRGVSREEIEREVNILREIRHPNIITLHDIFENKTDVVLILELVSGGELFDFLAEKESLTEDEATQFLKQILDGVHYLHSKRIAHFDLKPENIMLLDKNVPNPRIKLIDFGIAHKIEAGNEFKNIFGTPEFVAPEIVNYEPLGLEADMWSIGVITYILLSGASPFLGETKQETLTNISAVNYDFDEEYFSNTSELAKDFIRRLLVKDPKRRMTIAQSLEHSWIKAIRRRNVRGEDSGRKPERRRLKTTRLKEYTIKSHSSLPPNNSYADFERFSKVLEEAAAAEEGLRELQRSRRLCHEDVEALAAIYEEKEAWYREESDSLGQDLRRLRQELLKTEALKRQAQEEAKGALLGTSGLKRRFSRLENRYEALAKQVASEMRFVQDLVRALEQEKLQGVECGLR
Casein kinase I isoform alpha-like (Homo sapiens), sequence (Q8N752 whole entry, canonical isoform): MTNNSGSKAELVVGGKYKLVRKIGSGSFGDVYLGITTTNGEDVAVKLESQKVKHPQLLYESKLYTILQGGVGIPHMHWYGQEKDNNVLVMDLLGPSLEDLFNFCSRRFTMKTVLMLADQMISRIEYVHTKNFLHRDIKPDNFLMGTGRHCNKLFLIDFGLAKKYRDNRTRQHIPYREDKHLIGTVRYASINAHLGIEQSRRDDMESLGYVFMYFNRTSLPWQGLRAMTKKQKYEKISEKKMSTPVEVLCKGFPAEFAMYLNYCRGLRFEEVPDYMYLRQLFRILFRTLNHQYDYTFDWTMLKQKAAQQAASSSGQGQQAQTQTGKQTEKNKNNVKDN
Receptor tyrosine-protein kinase erbB-2 (Homo sapiens), sequence (P04626 whole entry): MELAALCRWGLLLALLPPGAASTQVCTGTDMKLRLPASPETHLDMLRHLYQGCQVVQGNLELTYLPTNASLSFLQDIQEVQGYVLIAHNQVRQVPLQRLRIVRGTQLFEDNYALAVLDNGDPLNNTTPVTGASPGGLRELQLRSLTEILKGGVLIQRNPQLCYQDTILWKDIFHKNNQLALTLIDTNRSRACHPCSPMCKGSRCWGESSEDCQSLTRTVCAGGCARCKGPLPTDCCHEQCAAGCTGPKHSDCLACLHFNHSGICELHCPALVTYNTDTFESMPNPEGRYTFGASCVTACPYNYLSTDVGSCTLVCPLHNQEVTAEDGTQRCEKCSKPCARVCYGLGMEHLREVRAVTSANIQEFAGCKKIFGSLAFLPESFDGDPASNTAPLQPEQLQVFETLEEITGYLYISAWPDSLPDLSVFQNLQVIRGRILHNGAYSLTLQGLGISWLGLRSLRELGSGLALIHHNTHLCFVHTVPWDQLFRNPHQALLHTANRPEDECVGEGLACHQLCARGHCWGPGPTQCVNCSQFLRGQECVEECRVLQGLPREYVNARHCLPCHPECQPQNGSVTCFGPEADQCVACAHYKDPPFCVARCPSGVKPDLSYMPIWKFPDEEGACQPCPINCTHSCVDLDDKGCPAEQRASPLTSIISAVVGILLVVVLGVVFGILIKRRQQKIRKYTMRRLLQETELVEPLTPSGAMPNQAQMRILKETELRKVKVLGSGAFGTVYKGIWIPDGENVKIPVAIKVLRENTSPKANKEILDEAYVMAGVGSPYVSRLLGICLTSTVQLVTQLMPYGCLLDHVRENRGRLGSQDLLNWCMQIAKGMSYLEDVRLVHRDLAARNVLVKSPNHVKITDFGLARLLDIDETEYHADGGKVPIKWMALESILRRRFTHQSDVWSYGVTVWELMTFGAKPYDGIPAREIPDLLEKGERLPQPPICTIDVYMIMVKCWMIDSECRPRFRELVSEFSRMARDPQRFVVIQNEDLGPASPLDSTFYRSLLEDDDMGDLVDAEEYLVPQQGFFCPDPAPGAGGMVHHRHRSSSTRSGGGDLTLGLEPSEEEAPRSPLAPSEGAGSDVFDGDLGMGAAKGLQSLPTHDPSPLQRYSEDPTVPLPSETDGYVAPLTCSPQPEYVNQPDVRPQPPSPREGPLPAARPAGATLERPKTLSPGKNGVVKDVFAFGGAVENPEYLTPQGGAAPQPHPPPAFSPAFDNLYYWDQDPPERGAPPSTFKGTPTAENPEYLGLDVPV
Ribosomal protein S6 kinase alpha-6 (Homo sapiens), sequence (Q9UK32 whole entry): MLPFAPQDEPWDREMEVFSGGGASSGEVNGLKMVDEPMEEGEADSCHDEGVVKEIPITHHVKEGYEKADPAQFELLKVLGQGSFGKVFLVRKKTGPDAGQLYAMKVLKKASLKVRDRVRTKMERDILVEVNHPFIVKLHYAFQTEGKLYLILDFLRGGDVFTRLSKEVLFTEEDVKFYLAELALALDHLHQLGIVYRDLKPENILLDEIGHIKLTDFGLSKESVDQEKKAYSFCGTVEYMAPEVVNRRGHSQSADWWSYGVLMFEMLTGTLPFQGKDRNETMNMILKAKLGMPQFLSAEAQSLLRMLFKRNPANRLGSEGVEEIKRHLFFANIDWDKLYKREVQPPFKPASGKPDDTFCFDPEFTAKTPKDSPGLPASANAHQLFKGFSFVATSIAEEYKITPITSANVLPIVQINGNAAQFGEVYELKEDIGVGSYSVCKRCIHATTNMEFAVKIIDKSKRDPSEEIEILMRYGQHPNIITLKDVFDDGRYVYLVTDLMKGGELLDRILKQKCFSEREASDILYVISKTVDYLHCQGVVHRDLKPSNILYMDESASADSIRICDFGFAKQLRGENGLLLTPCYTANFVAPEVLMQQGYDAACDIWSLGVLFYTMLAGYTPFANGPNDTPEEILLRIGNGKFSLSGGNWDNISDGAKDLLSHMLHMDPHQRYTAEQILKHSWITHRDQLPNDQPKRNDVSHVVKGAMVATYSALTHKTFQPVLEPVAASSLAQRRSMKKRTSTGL
Casein kinase II subunit alpha' (Homo sapiens), sequence (P19784 whole entry, looked up): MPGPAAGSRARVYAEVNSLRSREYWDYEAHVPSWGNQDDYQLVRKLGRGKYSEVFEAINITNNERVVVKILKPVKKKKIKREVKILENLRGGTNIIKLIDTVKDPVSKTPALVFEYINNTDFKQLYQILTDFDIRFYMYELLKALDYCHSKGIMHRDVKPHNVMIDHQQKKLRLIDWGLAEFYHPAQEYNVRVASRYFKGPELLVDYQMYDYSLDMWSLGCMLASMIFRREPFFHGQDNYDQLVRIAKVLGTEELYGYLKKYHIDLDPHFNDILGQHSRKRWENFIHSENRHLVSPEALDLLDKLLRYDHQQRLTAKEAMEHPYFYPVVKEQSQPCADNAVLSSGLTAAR
Cyclin-dependent kinase 4 (Homo sapiens), sequence (P11802 whole entry): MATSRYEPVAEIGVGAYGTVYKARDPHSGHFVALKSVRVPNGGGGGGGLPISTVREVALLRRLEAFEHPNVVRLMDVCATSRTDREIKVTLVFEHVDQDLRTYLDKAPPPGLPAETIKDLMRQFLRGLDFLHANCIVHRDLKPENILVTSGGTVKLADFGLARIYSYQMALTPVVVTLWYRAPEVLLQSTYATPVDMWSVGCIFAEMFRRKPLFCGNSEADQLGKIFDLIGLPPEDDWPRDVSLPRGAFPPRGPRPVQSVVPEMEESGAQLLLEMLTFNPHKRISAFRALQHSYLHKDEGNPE

Structure (SMILES) | residual activity [1] | residual activity [2] | residual activity [3] | residual activity [4] | residual activity [5] | residual activity [6] | residual activity [7] | residual activity [8] | residual activity [9] | residual activity [10] | residual activity [11] | residual activity [12] | residual activity [13] | residual activity [14] | residual activity [15] | residual activity [16] | residual activity [17] | residual activity [18] | residual activity [19] | residual activity [20] | also measured
O=C(Nc1cccnn1)N1CC(C/C=C/c2cncc(Oc3ccc(C(F)(F)F)cn3)n2)C1 | 58% | 76% | 94% | 100% | 91% | 86% | 100% | 98% | 100% | 100% | 72% | 100% | 100% | 83% | 77% | 100% | 95% | 88% | 100% | 100% | residual activity [21]: 0%; residual activity [22]: 81%; residual activity [23]: 85%; residual activity [24]: 99%; residual activity [25]: 90%; residual activity [26]: 95%; residual activity [27]: 97%; residual activity [28]: 100%; residual activity [29]: 92%; residual activity [30]: 80%; residual activity [31]: 85%; residual activity [32]: 74%; residual activity [33]: 100%; residual activity [34]: 100%; residual activity [35]: 100%; residual activity [36]: 82%; inhibition [37]: -0.28%; inhibition [38]: 7.85%; inhibition [39]: 1.14%
O=C(Nc1cccnn1)N1CCC(=Cc2cccc(Oc3ccc(C(F)(F)F)cn3)c2)CC1 | 100% | 100% | 81% | 88% | 88% | 100% | 94% | 70% | 76% | 100% | 100% | 100% | 79% | 72% | 100% | 100% | 100% | 100% | 100% | 80% | residual activity [21]: 100%; residual activity [22]: 100%; residual activity [23]: 100%; residual activity [24]: 100%; residual activity [25]: 72%; residual activity [26]: 83%; residual activity [27]: 85%; residual activity [28]: 100%; residual activity [29]: 87%; residual activity [30]: 100%; residual activity [31]: 100%; residual activity [32]: 100%; residual activity [33]: 100%; residual activity [34]: 100%; residual activity [35]: 82%; residual activity [36]: 100%; inhibition [37]: 10.7%; inhibition [38]: 28.4%; inhibition [39]: -3.23%
